According to PubChem BioAssay (NCI):
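Exposure lasted 48 hours, with cells grown in 96-well plates and compounds tested at five concentrations. TGI is the concentration that stops growth completely.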

How the values were obtained:
Experiment in all cases: NCI tumour cell line growth inhibition, 48 h
EKVX NSCLC = test system: EKVX NSCLC
MALME-3M melanoma = test system: MALME-3M melanoma
DMS 114 small cell lung = test system: DMS 114 small cell lung
SN12C renal = test system: SN12C renal
NCI-H23 lung = test system: NCI-H23 lung
DLD-1 colon = test system: DLD-1 colon
HCC-2998 colon = test system: HCC-2998 colon
NCI/ADR-RES ovarian = test system: NCI/ADR-RES ovarian
SNB-78 CNS = test system: SNB-78 CNS
RXF 393 renal = test system: RXF 393 renal
HOP-18 NSCLC = test system: HOP-18 NSCLC
KM12 colon = test system: KM12 colon
COLO 205 colon = test system: COLO 205 colon
P388/ADR leukemia = test system: P388/ADR leukemia
MOLT-4 leukemia = test system: MOLT-4 leukemia
OVCAR-3 ovarian = test system: OVCAR-3 ovarian
K-562 leukemia = test system: K-562 leukemia
DMS 273 small cell lung = test system: DMS 273 small cell lung
SK-MEL-5 melanoma = test system: SK-MEL-5 melanoma
HCT-116 colon = test system: HCT-116 colon
SF-539 CNS = test system: SF-539 CNS
RPMI-8226 leukemia = test system: RPMI-8226 leukemia
NCI-H460 lung = test system: NCI-H460 lung
HOP-92 NSCLC = test system: HOP-92 NSCLC
UACC-257 melanoma = test system: UACC-257 melanoma
IGROV1 ovarian = test system: IGROV1 ovarian
SNB-75 CNS = test system: SNB-75 CNS
SK-MEL-2 melanoma = test system: SK-MEL-2 melanoma
CCRF-CEM leukemia = test system: CCRF-CEM leukemia
UO-31 renal = test system: UO-31 renal
SNB-19 CNS = test system: SNB-19 CNS
UACC-62 melanoma = test system: UACC-62 melanoma
CAKI-1 renal = test system: CAKI-1 renal
NCI-H226 lung = test system: NCI-H226 lung
SK-OV-3 ovarian = test system: SK-OV-3 ovarian
MCF7 breast = test system: MCF7 breast
SF-268 CNS = test system: SF-268 CNS
HT29 colon = test system: HT29 colon
LOX IMVI melanoma = test system: LOX IMVI melanoma
HL-60(TB) leukemia = test system: HL-60(TB) leukemia
OVCAR-5 ovarian = test system: OVCAR-5 ovarian
KM20L2 colon = test system: KM20L2 colon
M19-MEL melanoma = test system: M19-MEL melanoma
SW-620 colon = test system: SW-620 colon
OVCAR-8 ovarian = test system: OVCAR-8 ovarian
A498 renal = test system: A498 renal
SN12K1 renal = test system: SN12K1 renal
SF-295 CNS = test system: SF-295 CNS
HOP-62 NSCLC = test system: HOP-62 NSCLC
U251 CNS = test system: U251 CNS
P388 leukemia = test system: P388 leukemia
SK-MEL-28 melanoma = test system: SK-MEL-28 melanoma
HCT-15 colon = test system: HCT-15 colon
NCI-H522 lung = test system: NCI-H522 lung
A549 NSCLC = test system: A549 NSCLC
OVCAR-4 ovarian = test system: OVCAR-4 ovarian

Compound `NC(Cc1c[nH]c2ccccc12)C(=O)O` (stereo unspecified) has a TGI (EKVX NSCLC) greater than 300 µM, a TGI (MALME-3M melanoma) greater than 300 µM and a TGI (DMS 114 small cell lung) greater than 300 µM. It also gave a TGI (SN12C renal) greater than 13.9 µM, a TGI (NCI-H23 lung) greater than 300 µM and a TGI (DLD-1 colon) greater than 300 µM. For the same compound, the TGI (HCC-2998 colon) was greater than 300 µM, the TGI (NCI/ADR-RES ovarian) was greater than 300 µM and the TGI (SNB-78 CNS) was greater than 300 µM. It also gave a TGI (RXF 393 renal) greater than 300 µM, a TGI (HOP-18 NSCLC) of 196 µM and a TGI (KM12 colon) greater than 300 µM. For the same compound, the TGI (COLO 205 colon) was greater than 300 µM, the TGI (P388/ADR leukemia) was greater than 300 µM and the TGI (MOLT-4 leukemia) was greater than 300 µM. The TGI (OVCAR-3 ovarian) was greater than 300 µM, the TGI (K-562 leukemia) was greater than 189 µM and the TGI (DMS 273 small cell lung) was greater than 300 µM. The TGI (SK-MEL-5 melanoma) was greater than 300 µM, the TGI (HCT-116 colon) was greater than 300 µM and the TGI (SF-539 CNS) was greater than 300 µM. It also gave a TGI (RPMI-8226 leukemia) greater than 300 µM, a TGI (NCI-H460 lung) greater than 300 µM and a TGI (HOP-92 NSCLC) greater than 300 µM. For the same compound, the TGI (UACC-257 melanoma) was greater than 300 µM, the TGI (IGROV1 ovarian) was greater than 300 µM and the TGI (SNB-75 CNS) was greater than 300 µM. For the same compound, the TGI (SK-MEL-2 melanoma) was greater than 300 µM, the TGI (CCRF-CEM leukemia) was greater than 300 µM and the TGI (UO-31 renal) was greater than 300 µM. For the same compound, the TGI (SNB-19 CNS) was greater than 300 µM, the TGI (UACC-62 melanoma) was greater than 300 µM and the TGI (CAKI-1 renal) was greater than 300 µM. For the same compound, the TGI (NCI-H226 lung) was greater than 300 µM, the TGI (SK-OV-3 ovarian) was greater than 300 µM and the TGI (MCF7 breast) was greater than 300 µM. The TGI (SF-268 CNS) was greater than 300 µM, the TGI (HT29 colon) was greater than 300 µM and the TGI (LOX IMVI melanoma) was greater than 300 µM. The TGI (HL-60(TB) leukemia) was greater than 300 µM, the TGI (OVCAR-5 ovarian) was greater than 300 µM and the TGI (KM20L2 colon) was greater than 300 µM. It also gave a TGI (M19-MEL melanoma) greater than 300 µM, a TGI (SW-620 colon) greater than 300 µM and a TGI (OVCAR-8 ovarian) greater than 248 µM. The TGI (A498 renal) was greater than 13.9 µM, the TGI (SN12K1 renal) was greater than 300 µM and the TGI (SF-295 CNS) was greater than 300 µM. It also gave a TGI (HOP-62 NSCLC) greater than 300 µM, a TGI (U251 CNS) greater than 300 µM and a TGI (P388 leukemia) greater than 300 µM. The TGI (SK-MEL-28 melanoma) was greater than 300 µM, the TGI (HCT-15 colon) was greater than 191 µM and the TGI (NCI-H522 lung) was greater than 300 µM. For the same compound, the TGI (A549 NSCLC) was greater than 300 µM and the TGI (OVCAR-4 ovarian) was greater than 300 µM.
